Key:
Assay type in all cases: in vivo
[1] = system: green peach aphid (Myzus persicae); test: Myzus persicae oral test; details: 120 h, read-out: activity (mortality)
Summary of the method: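 Acetone stock (1 pbw compound/100 pbw solvent) diluted in water; mixed with sugar-supplemented IPL41 medium; parafilm-sealed; mixed aphid population sucks through film; mortality % read at 5 d.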

[2] = system: adult engorged female ticks (Rhipicephalus microplus); test: Rhipicephalus (Boophilus) microplus injection test; details: 168 h, application rate 4 μg/tick, egg deposition after 7 days, read-out: activity (efficacy: infertile eggs)
Summary of the method: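 Five adult engorged female ticks injected into the abdomen with 1 μL compound solution in DMSO, then held in a climate chamber. Fertile egg deposition assessed after 7 days, unclear eggs kept until hatching (about 42 days); efficacy 100% = all eggs infertile, 0% = all fertile.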

[3] = system: adult flies Musca domestica strain WHO-N; test: Musca domestica test (MUSCDO surface treatment & contact assay); details: 24 hours after contact, read-out: efficacy (mortality); for mortality at 4 mg/m2: surface concentration 4 mg/m^2, exposure 30 minutes; for mortality at 20 mg/m2: surface concentration 20 mg/m^2, exposure 30 minutes
Summary of the method: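 Compound dissolved at 2 mg/ml in acetone with 2000 ppm RME, applied to glazed tile and dried; adult flies exposed on the surface for 30 min. Percent mortality scored 24 h after contact.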

[4] = system: larvae of the banded cucumber beetle (Diabrotica balteata); test: Diabrotica balteata spray test; details: 168 h, after 7 days, wheat seeds, read-out: activity (efficacy: seedlings grown); for pest or weed control at 32 µg/disc, 100 g/ha: application rate 100 g/ha (=32 μg/well)
Summary of the method: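 Wheat seeds germinated 1 day on agar were sprayed with compound diluted in water with 1000 ppm emulsifier, then infested with 10-20 Diabrotica balteata larvae. Efficacy in % scored after 7 days: 100% = seedlings grown as untreated, uninfected control; 0% = no seedlings grown.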

[5] = system: adult brown dog ticks (Rhipicephalus sanguineus); test: Rhipicephalus sanguineus in-vitro contact test, adult brown dog ticks; details: application rate 5 μg/cm^2 (=500 g/ha), after 48 hours, read-out: activity (efficacy: ticks dead or moribund)
Summary of the method: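 Acetone solution (900 ppm giving 5 μg/cm²) coated on inner walls of glass tubes; after drying, 5-10 adult ticks added and held at room temperature 48 h. Ticks then placed on 45-50 °C plate ≤5 min; those unable to climb away scored dead/moribund, efficacy as % affected.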

[6] = system: fall armyworm larvae (Spodoptera frugiperda); test: Spodoptera frugiperda spray test; details: 168 h, application rate 100 g/ha, after 7 days, maize leaf sections
Summary of the method: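 Maize leaf sections sprayed with compound diluted in water with 1000 ppm emulsifier, then infested with larvae once dry. Mortality (%) scored after 7 days; 100% = all caterpillars killed.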

[7] = system: adult mosquitoes Aedes aegypti strain MONHEIM; test: Aedes aegypti test (AEDSAE surface treatment & contact assay); details: 24 hours after contact, read-out: efficacy (mortality); for mortality at 4 mg/m2: surface concentration 4 mg/m^2, exposure 30 minutes; for mortality at 20 mg/m2: surface concentration 20 mg/m^2, exposure 30 minutes
Summary of the method: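 Compound in acetone (2 mg/ml) with 2000 ppm RME dried onto glazed tile; adults exposed to the treated surface for 30 min. Percent mortality scored 24 h after contact.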

[8] = system: adult unfed cat fleas (Ctenocephalides felis); test: Ctenocephalides felis oral test; details: 48 h, read-out: activity (mortality)
Summary of the method: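 About 20 adult unfed cat fleas fed through parafilm on citrated cattle blood containing compound (from a DMSO concentrate). Blood held at 37° C, fleas at room temperature. Mortality in % scored after 2 days.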

Row | Structure (SMILES) | mortality at 4 ppm [1] [%] | pest or weed control at 0.004 mg [2] [%] | mortality at 4 mg/m2 [3] [%] | mortality at 20 mg/m2 [3] [%] | pest or weed control at 32 µg/disc, 100 g/ha [4] [%] | pest or weed control at 160 µg/disc, 500 g/ha ([4]; application rate 500 g/ha (=160 μg/well)) [%] | pest or weed control at 5 µg/cm2, 500 g/ha [5] [%] | mortality at 100 g/ha [6] [%] | mortality at 4 mg/m2 [7] [%] | mortality at 20 mg/m2 [7] [%] | mortality at 100 ppm [8] [%]
1 | C[C@H](NC(=O)c1cc(C(F)(F)F)cc(C(F)(F)F)c1)c1ncnn1-c1ccc(C(=O)N2CCOCC2)cn1 [Example I-2] | 100 | 100 | 80 to 100 | 80 to 100 | 100 | 100 | 100 | 100 | 80 to 100 | 80 to 100 | 
2 | Cc1nc([C@H](C)NC(=O)c2cc(C(F)(F)F)cc(C(F)(F)F)c2)n(-c2ncc(C(=O)N3CCOCC3)s2)n1 [Example I-4] | 100 | 100 | 80 to 100 |  | 100 |  | 100 | 100 |  | 80 to 100 | 100
3 | CC1CN(C(=O)c2ccc(-n3ncnc3[C@H](C)NC(=O)c3cc(C(F)(F)F)cc(C(F)(F)F)c3)nc2)CC(C)O1 (stereo partly drawn) [Example I-5] | 100 | 100 | 80 to 100 | 80 to 100 |  |  | 100 | 100 | 80 to 100 | 80 to 100 | 100
4 | COC1CCCN(C(=O)c2ccc(-n3ncnc3[C@H](C)NC(=O)c3cc(C(F)(F)F)cc(C(F)(F)F)c3)nc2)C1 (stereo partly drawn) [Example I-8] | 100 | 100 |  | 80 to 100 |  |  | 100 | 100 |  | 80 to 100 | 100
5 | Cc1nc([C@H](C)NC(=O)c2cc(C(F)(F)F)cc(C(F)(F)F)c2)n(-c2ccc(C(=O)N3CCOCC3)cn2)n1 [Example I-9, N-[(1S)-1-{3-methyl-1-[5-(morpholin-4-ylcarbonyl)pyridin-2-yl]-1H-1,2,4-triazol-5-yl}ethyl]-3,5-bis(trifluoromethyl)benzamide] | 100 | 100 | 80 to 100 | 80 to 100 | 100 |  | 100 | 100 | 80 to 100 | 80 to 100 | 
6 | C[C@H](NC(=O)c1cc(C(F)(F)F)cc(C(F)(F)F)c1)c1ncnn1-c1ccc(C(=O)N2CCCC2)cn1 [Example I-11] | 100 | 100 |  | 80 to 100 | 80 |  | 100 | 100 | 80 to 100 | 80 to 100 | 
7 | COC1CN(C(=O)c2ccc(-n3ncnc3[C@H](C)NC(=O)c3cc(C(F)(F)F)cc(C(F)(F)F)c3)nc2)C1 [Example I-15] | 100 | 100 |  | 80 to 100 | 80 |  | 100 | 100 |  | 80 to 100 | 100
8 | Cc1nc([C@H](C)NC(=O)c2cc(Cl)cc(C(F)(F)F)c2)n(-c2ccc(C(=O)N3CC(C)OC(C)C3)cn2)n1 (stereo partly drawn) [Example I-29] | 100 | 100 |  | 80 to 100 | 100 |  | 100 | 83 | 80 to 100 | 80 to 100 | 100
9 | C[C@@H]1CN(C(=O)c2ccc(-n3ncnc3[C@H](C)NC(=O)c3cc(Cl)cc(C(F)(F)F)c3)nc2)C[C@H](C)O1 [Example I-31] | 100 | 100 |  | 80 to 100 | 100 |  | 100 | 100 | 80 to 100 | 80 to 100 | 100
10 | C[C@H](NC(=O)c1cc(Cl)cc(C(F)(F)F)c1)c1ncnn1-c1ccc(C(=O)N2CCS(=O)(=O)CC2)cn1 [Example I-35] | 100 | 100 |  |  | 100 |  | 100 |  | 80 to 100 | 80 to 100 | 100
11 | C[C@H](NC(=O)c1cc(Cl)cc(C(F)(F)F)c1)c1ncnn1-c1ccc(C(=O)N2CCSCC2)cn1 [Example I-36] | 100 | 100 | 80 to 100 | 80 to 100 | 80 |  | 100 |  | 80 to 100 | 80 to 100 | 100
12 | Cc1nc([C@H](C)NC(=O)c2cc(C(F)(F)F)cc(C(F)(F)F)c2)n(-c2ccc(C(=O)N3C[C@@H](C)O[C@@H](C)C3)cn2)n1 [Example I-45] | 100 | 100 | 80 to 100 | 80 to 100 | 100 |  | 100 | 100 |  | 80 to 100 | 100
13 | C[C@@H]1CN(C(=O)c2ccc(-n3ncnc3[C@H](C)NC(=O)c3cc(C(F)(F)F)cc(C(F)(F)F)c3)nc2)C[C@@H](C)O1 [Example I-46] | 100 | 100 |  | 80 to 100 | 100 |  | 100 | 100 |  | 80 to 100 | 100
14 | C[C@@H]1CN(C(=O)c2ccc(-n3ncnc3[C@H](C)NC(=O)c3cc(C(F)(F)F)cc(C(F)(F)F)c3)nc2)CCO1 [Example I-69] | 100 |  | 80 to 100 | 80 to 100 | 100 |  | 100 | 100 |  | 80 to 100 | 
15 | C[C@H](NC(=O)c1cc(C(F)(F)F)cc(C(F)(F)F)c1)c1ncnn1-c1ccc(C(=O)N2CCS(=O)(=O)CC2)cn1 [Example I-75] | 100 |  | 80 to 100 | 80 to 100 | 100 |  | 100 | 100 | 80 to 100 | 80 to 100 | 
16 | Cc1nc([C@H](C)NC(=O)c2cc(C(F)(F)F)cc(C(F)(F)F)c2)n(-c2ccc(C(=O)N3CCS(=O)(=O)CC3)cn2)n1 [Example I-76] | 100 |  | 80 to 100 | 80 to 100 |  |  | 100 | 100 | 80 to 100 | 80 to 100 | 
17 | C[C@H](NC(=O)c1cc(C(F)(F)F)cc(C(F)(F)F)c1)c1ncnn1-c1ccc(C(=O)N2C[C@H](C)O[C@@H](C)C2)cn1 [Example I-94] |  | 100 | 80 to 100 | 80 to 100 | 100 |  | 100 | 100 | 80 to 100 | 80 to 100 | 100

Source: patent US20230058623A1, “NOVEL HETEROARYL-TRIAZOLE COMPOUNDS AS PESTICIDES” (Bayer Aktiengesellschaft, priority 2019, published 2023)
